Compound: C[C@@]1(C(=O)Nc2ccc(F)nc2)CCCN1c1nc(Nc2cc(C3CC3)n[nH]2)c2cccn2n1 + CC(=O)Nc1cccc(-n2c(=O)n(C3CC3)c(=O)c3c(Nc4ccc(I)cc4F)n(C)c(=O)c(C)c32)c1 [Trametinib] (partner 0.02 µM)
Assay: relative viability (nuclei count vs DMSO), 5 days (fraction); higher = more cells survive
Conditions: first compound 0.4 µM
Outline: (§1)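 Lung cancer cell lines in 1536-well plates were dosed by pin tool the day after seeding, either with one drug alone or with a fixed anchor-drug dose plus five library-drug doses (not always all listed) in √10 steps. After 5 days, cells were fixed and their nuclei stained in one step (final 0.05% Triton X-100, 1% formaldehyde, 1 ug/ml Hoechst), then counted on 4× images. Relative viability is the nuclei count in treated wells divided by that in vehicle wells. Values are medians of duplicate plates.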

First: NCI-H1734
Second: NCI-H460
The relative viability of the first is higher: 0.403 for the first, 0.0726 for the second.

First: NCI-H2347
Second: SK-LU-1
The relative viability of the first is lower: 0.256 for the first, 0.421 for the second.

Compared with NCI-H1395, 201T is lower in relative viability: 0.901 for the first, 0.637 for the second.

Going from NCI-H1915 to HCC-827, the relative viability rises from 0.272 to 0.45.

Compared with LXF-289, NCI-H23 is lower in relative viability: 0.645 for the first, 0.178 for the second.

First: NCI-H647
Second: CAL-12T
The relative viability of the first is higher: 0.383 for the first, 0.351 for the second.

Compared with NCI-H1651, EPLC-272H is lower in relative viability: 0.712 for the first, 0.234 for the second.

Going from NCI-H2228 to NCI-H1792, the relative viability falls from 0.276 to 0.145.

Going from NCI-H1355 to NCI-H3122, the relative viability falls from 0.289 to 0.181.

Compared with NCI-H1437, NCI-H1755 is higher in relative viability: 0.277 for the first, 0.734 for the second.

Going from NCI-H2023 to HCC-15, the relative viability falls from 0.297 to 0.19.

Compared with NCI-H1793, PC-14 is higher in relative viability: 0.392 for the first, 0.696 for the second.

Going from EKVX to LC-2-ad, the relative viability rises from 0.355 to 0.648.

Going from NCI-H1944 to NCI-H1975, the relative viability rises from 0.284 to 0.313.

Going from RERF-LC-KJ to NCI-H358, the relative viability falls from 0.639 to 0.112.

Going from NCI-H650 to PC-3 [JPC-3], the relative viability falls from 0.743 to 0.513.

Same assay, conditions: first compound 1.265 µM

Compared with A-427, NCI-H441 is lower in relative viability: 0.579 for the first, 0.211 for the second.

First: NCI-H661
Second: NCI-H1734
The relative viability of the first is lower: 0.555 for the first, 0.563 for the second.

Compared with NCI-H460, NCI-H2347 is higher in relative viability: 0.0967 for the first, 0.248 for the second.

Compared with SK-LU-1, NCI-H1395 is higher in relative viability: 0.469 for the first, 0.989 for the second.

Compared with 201T, NCI-H1915 is lower in relative viability: 0.676 for the first, 0.338 for the second.

Compared with HCC-827, LXF-289 is higher in relative viability: 0.557 for the first, 0.717 for the second.

First: NCI-H23
Second: NCI-H647
The relative viability of the first is lower: 0.252 for the first, 0.397 for the second.

Compared with CAL-12T, NCI-H1651 is higher in relative viability: 0.253 for the first, 0.757 for the second.

Compared with EPLC-272H, NCI-H2228 is higher in relative viability: 0.231 for the first, 0.302 for the second.

Compared with NCI-H1792, NCI-H1355 is higher in relative viability: 0.211 for the first, 0.346 for the second.

Compared with NCI-H3122, NCI-H1437 is higher in relative viability: 0.2 for the first, 0.277 for the second.

Compared with NCI-H1755, NCI-H2023 is lower in relative viability: 0.744 for the first, 0.277 for the second.

First: HCC-15
Second: NCI-H1793
The relative viability of the first is lower: 0.264 for the first, 0.459 for the second.

Going from PC-14 to EKVX, the relative viability falls from 0.687 to 0.288.

First: LC-2-ad
Second: NCI-H1944
The relative viability of the first is higher: 0.735 for the first, 0.384 for the second.

First: NCI-H1975
Second: RERF-LC-KJ
The relative viability of the first is lower: 0.234 for the first, 0.685 for the second.

Compared with NCI-H358, NCI-H650 is higher in relative viability: 0.101 for the first, 0.611 for the second.

In the case of PC-3 [JPC-3], the relative viability is reported as 0.603.

Compound: CC1(C)CNc2cc(NC(=O)c3cccnc3NCc3ccncc3)ccc21 [Motesanib] + Cc1nc(NC(=O)N2CCC[C@H]2C(N)=O)sc1-c1ccnc(C(C)(C)C(F)(F)F)c1 [Alpelisib] (partner 2 µM)
Assay: as above
Conditions: first compound 0.01 µM
Outline: as §1

First: A-427
Second: NCI-H441
The relative viability of the first is higher: 1.12 for the first, 0.699 for the second.

Compared with NCI-H661, NCI-H1734 is higher in relative viability: 0.356 for the first, 0.711 for the second.

First: NCI-H460
Second: NCI-H2347
The relative viability of the first is lower: 0.567 for the first, 1.02 for the second.

SK-LU-1 showed a relative viability of 1.11.

Source: the supplement of paper PMC10307832
